Tests used:
Format in all cases: in vivo, rat
[1] = system: dexamethasone-induced thymus suppression; assay: Antithymolysis test on rats p.o. on antiglucocorticoid action
Text: The tests below were all performed on rats according to known methods. Antithymolysis test p.o. on antiglucocorticoid action: See, for example, EP-A 0 283 428.

uterus weight = assay: Uterus growth test on rats p.o. for estrogenic action; settings: ovariectomized rats, 3-day treatment
Description: The tests below were all performed on rats according to known methods. Uterus growth test p.o. for estrogenic action: Stimulation of uterus weight with the test compound, vehicle: s.c. benzylbenzoate/castor oil (1+4); p.o. NaCl-myrj; 3-day treatment of ovariectomized animals; parameters: uterus weight and endometrial epithelium height; vaginal smear negative; reference compound: estradiol 0.1 μg.

prostate weight = assay: Androgen test on rats p.o. (stimulation of the prostate weight)
Description: (§1) The tests below were all performed on rats according to known methods.
Androgen test p.o.: Stimulation of the prostate weight with the test compound, vehicle: s.c. benzylbenzoate, castor oil (1+4); p.o. NaCl-myrj; reference compound testosterone propionate. Virtually no stimulation of the prostate weight is observed up to a dose of 10 mg of test compound/animal/day.

rats = assay: Abortive test on rats s.c. and p.o.
Text: as §1
Abortive test s.c. and p.o.: See, for example, EP-A 0 283 428.

Row | Compound | Antithymolysis test on rats p.o. (% elimination of dexamethasone-induced thymus suppression) ([1]; dose 1 mg/animal/day) | Antithymolysis test on rats p.o. (% elimination of dexamethasone-induced thymus suppression) ([1]; dose 3 mg/animal/day) | Antithymolysis test on rats p.o. (% elimination of dexamethasone-induced thymus suppression) ([1]; dose 10 mg/animal/day) | Uterus growth test on rats p.o. (% uterus weight stimulation) (uterus weight; dose 10 mg/animal/day) | Androgen test on rats p.o. (% prostate stimulation) (prostate weight; dose 1 mg/animal/day) | Androgen test on rats p.o. (% prostate stimulation) (prostate weight; dose 3 mg/animal/day) | Androgen test on rats p.o. (% prostate stimulation) (prostate weight; dose 10 mg/animal/day) | Abortive test on rats p.o. (n abortion/n total) (rats; dose 0.03 mg/animal/day) | Abortive test on rats p.o. (n abortion/n total) (rats; dose 0.1 mg/animal/day) | Abortive test on rats p.o. (n abortion/n total) (rats; dose 0.3 mg/animal/day) | Abortive test on rats s.c. (n abortion/n total) (rats; dose 0.03 mg/animal/day) | Abortive test on rats s.c. (n abortion/n total) (rats; dose 0.1 mg/animal/day) | Abortive test on rats s.c. (n abortion/n total) (rats; dose 0.3 mg/animal/day) | Abortive test on rats p.o. (n abortion/n total) (rats; dose 0.003 mg/animal/day) | Abortive test on rats p.o. (n abortion/n total) (rats; dose 0.01 mg/animal/day) | Antithymolysis test on rats p.o. (% elimination of dexamethasone-induced thymus suppression) ([1]; dose 2.2 mg/animal/day) | Antithymolysis test on rats p.o. (% elimination of dexamethasone-induced thymus suppression) ([1]; dose 6.7 mg/animal/day) | Antithymolysis test on rats p.o. (% elimination of dexamethasone-induced thymus suppression) ([1]; dose 22 mg/animal/day) | Uterus growth test on rats p.o. (% uterus weight stimulation) (uterus weight; dose 3 mg/animal/day)
1 | CC#C[C@]1(O)CC[C@H]2[C@@H]3CCC4=CC(=O)CCC4=C3[C@@H](c3ccc(N(C)C)cc3)C[C@@]21C [D, 11β-[4-(Dimethylamino)phenyl]-17β-hydroxy-17α-(1-propinyl)estra-4,9-dien-3-one, reference compound] | (19) % | (79) % | (76) % | (6.4) % | (1.6) % | (2.9) % | (7.2) % |  |  |  |  |  |  |  |  |  |  |  | 
2 | CC(=O)c1ccc(C2CC3(C)C(CCC3(O)C(F)(F)C(F)(F)F)C3CCC4=CC(=O)CCC4C23)cc1 (stereo not drawn) [Compound A, 11β-(4-Acetylphenyl)-17β-hydroxy-17α-(1,1,2,2,2-pentafluoroethyl)estr-4-en-3-one] | (6.0) % | (7.4) % | (11.5) % | (3.7) % | (4.8) % | (3.3) % |  | (4/4) | (4/4) | (4/4) | (4/4) | (4/4) | (4/4) |  |  |  |  |  | 
3 | 6′-Acetyl-9,11α-dihydro-17β-hydroxy-17α-(1,1,2,2,2-pentafluoroethyl)-4′H-naphth[3′,2′,1′:10,9,11]estr-4-en-3-one [Compound C] |  |  |  | (4.4) % |  |  |  | (4/4) | (4/4) | (4/4) | (4/4) | (4/4) | (4/4) | (4/4) | (4/4) | (7.2) % | (31.6) % | (18.8) % | 
4 | CC(=O)c1ccc([C@H]2C[C@@]3(C)[C@@H](CC[C@@]3(O)C(F)(F)C(F)(F)F)[C@@H]3CCC4=CC(=O)CCC4=C32)cc1 [B, 11β-(4-Acetylphenyl)-17β-hydroxy-17α-(1,1,2,2,2-pentafluoroethyl)estra-4,9-dien-3-one] | (1.2) % | (21.6) % | (18.2) % | (2.6) % | (2.1) % | (0) % |  | (4/4) | (4/4) | (4/4) | (4/4) | (4/4) | (4/4) |  |  |  |  |  | 
5 | C=C1CCOC12CCC1C3CCC4=CC(=O)CCC4=C3C(c3ccc(C(C)=O)cc3)CC12C (stereo not drawn) [E, 11β-(4-Acetylphenyl)-19,24-dinor-17,23-epoxy-17α-chola-4,9,20-trien-3-one, reference compound] | (4.3) % | (19.1) % | (44.7) % | (2.4) % | (4.0) % | (5.6) % | (4.4) % | (0/4) | (4/4) | (4/4) | (0/4) | (3/4) | (4/4) |  |  |  |  |  | (1.3) %

— US20050080060A1, “Antigestagenically active steroids with a fluorinated 17alpha-alkyl chain” (priority 1997, published 2005)
